How the values were obtained:
[1] = system: methylation of H3 (1-25) and MED12; conditions: in cell; cited from earlier work
3-nitrotyrosine = experiment: 3-Nitrotyrosine ELISA of brain lysate; assay type: in vivo, mouse; conditions: combined cortex and hippocampus lysate
Experimental: OxiSelect™ 3-Nitrotyrosine ELISA: Protein was extracted from dissected tissue in an extraction buffer consisting of T-PER® Tissue Protein Extraction Reagent (Cat. No. 78510, Thermo Fischer Scientific, Waltham, MA) and Halt™ Protease Inhibitor Cocktail (Cat. No. 87785, Thermo Fischer Scientific, Waltham, MA). Following homogenization and centrifugation (10,000×g, 5 min, 4° C.), protein concentration was determined in the supernatant using DC Protein Assay (Cat. No. 5000112, Bio-Rad Laboratories, Hercules, California) according to manufacturer instructions. Levels of 3-Nitrotyrosine were determined using OxiSelect™ 3-Nitrotyrosine ELISA (Cat. No. STA-305, Cell Biolabs Inc., San Diego, CA). Briefly, 50 μL of protein lysate was added to a pre-coated 96-well plate and incubated at room temperature (20° C.) for 10 min on an orbital shaker. 50 μL of anti-nitrotyrosine antibody (1:1000, Cell Biolabs Inc., San Diego, CA) was added to each well and plate was incubated for 1 hr at 20° C. Wells were washed 3 times using assay wash buffer, and 100 μL of secondary antibody-enzyme conjugate (1:1000, Cell Biolabs Inc., San Diego, CA) was added to each well. Plate was then incubated for 1 hr at 20° C. on an orbital shaker. […] The standard curve was provided by the manufacturer, and all sample concentrations were determined from the standard curve values. Changes in absorbance were measured at 450 nm. […]

PRMT4 = PRMT4 (Homo sapiens, UniProt Q86X55); conditions: cited from earlier work
eNOS = eNOS protein level in brain, capillary-phoresis; assay type: in vivo, mouse; conditions: treated 3xTg-AD mice; control = 100%
Excerpt: Capillary-phoresis immunoassay via ProteinSimple®: Quantification of all protein targets was achieved using Simple Western analysis in a Jess™ apparatus per the manufacturer's protocol (ProteinSimple, Bio-techne, Minneapolis, MN). Protein was extracted from dissected tissue in an extraction buffer consisting of T-PER® Tissue Protein Extraction Reagent (Cat. No. 78510, Thermo Fischer Scientific, Waltham, MA) and Halt™ Protease Inhibitor Cocktail (Cat. No. 87785, Thermo Fischer Scientific, Waltham, MA). Following homogenization and centrifugation (10,000×g, 5 min, 4° C.), protein concentration was determined in tissue protein supernatant samples using DC Protein Assay (Cat. No. 5000112, Bio-Rad Laboratories, Hercules, California) according to manufacturer instructions. […] Antibody diluent (ProteinSimple, Bio-techne, Minneapolis, MN) was used for all antibody dilutions as follows: PRMT4 (1:50, RRID: AB_2068436), PRMT6 (1:100, Cell Signaling Technology cat. 14641), eNOS (1:200, RRID: AB_10850618), nNOS (1:100, RRID: AB_2152488), iNOS (1:100, RRID: AB_10000625), DDAH2 (1:50, RRID: AB_2640442) Antibodies were detected using HRP-conjugated secondary anti-rabbit, and -mouse. Relative protein levels were calculated by measuring the area under the peak of a chemiluminescent chromatogram and normalized to total capillary chemiluminescence for a given sample. […]

Sequence of PRMT4 (Q86X55 whole entry, species assumed): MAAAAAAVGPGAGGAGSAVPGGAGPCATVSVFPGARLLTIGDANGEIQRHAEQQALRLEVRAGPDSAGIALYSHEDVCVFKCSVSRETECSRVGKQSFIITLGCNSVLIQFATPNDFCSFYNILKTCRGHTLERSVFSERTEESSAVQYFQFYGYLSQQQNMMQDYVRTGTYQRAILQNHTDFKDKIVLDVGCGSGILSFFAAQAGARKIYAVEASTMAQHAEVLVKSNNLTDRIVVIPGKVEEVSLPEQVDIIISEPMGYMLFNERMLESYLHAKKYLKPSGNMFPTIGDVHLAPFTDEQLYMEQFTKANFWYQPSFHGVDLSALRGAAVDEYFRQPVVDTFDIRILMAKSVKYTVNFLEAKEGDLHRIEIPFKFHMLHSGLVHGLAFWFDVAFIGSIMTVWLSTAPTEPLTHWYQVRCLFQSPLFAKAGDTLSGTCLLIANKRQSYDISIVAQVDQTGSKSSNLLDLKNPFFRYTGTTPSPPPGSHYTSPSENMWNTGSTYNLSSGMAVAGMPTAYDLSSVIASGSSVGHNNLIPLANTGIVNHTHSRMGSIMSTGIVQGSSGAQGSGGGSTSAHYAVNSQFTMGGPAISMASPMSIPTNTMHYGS

## CNCCN1CCC(c2cc(CN(C)C(=O)c3cccc(Oc4ccccc4)c3)ccn2)CC1 [TP-064, N-Methyl-N-((2-(1-(2-(methylamino)ethyl)piperidin-4-yl)pyridin-4-yl)methyl)-3-phenoxybenzamide]
[1]
  methylation of H3 (1-25) and MED12: inhibits
3-nitrotyrosine; 3xTg-AD mice
  3-nitrotyrosine level: 110 ± 27.2 µM
3-nitrotyrosine; C57BL/6J mice
  3-nitrotyrosine level: 86.9 ± 7.71 µM
PRMT4
  selectivity over other histone methyltransferases and non-epigenetic targets: > 100 fold
eNOS
  eNOS level in cortical lysates: 94.0%±25.6
  eNOS level in hippocampal lysates: 69.5%±2.71

Source: patent US20240238268A1, “TREATMENTS AND METHODS FOR TREATING ALZHEIMER'S DISEASE” (Board of Supervisors of Louisiana State University and …, priority 2021, published 2024)
